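In this assay, cells in 96-well plates receive the compound at five concentrations for 48 hours. Endpoints are linearly interpolated between the surrounding concentrations. Here, GI50 denotes the concentration required for 50% inhibition of growth.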 Calls of active or inactive are those of the source. Rule as the data show it: active = GI50 up to about 1.1 µM and inactive = higher.
How the values were obtained:
Assay in all cases: growth of human tumour cells (NCI), 48 h
BT-549 = system: BT-549
DMS-273 = system: DMS-273
KM-20L2 = system: KM-20L2
LXFL 529 = system: LXFL 529
SNB-78 = system: SNB-78
XF498 = system: XF498
DMS-114 = system: DMS-114
RXF 631 = system: RXF 631
HOP-18 = system: HOP-18

Measured: GI50

CC(=O)/C(=N\N=C(N)N)c1ccccc1
inactive: BT-549 > 100 µM

O=C(O)Cn1ccnc1[N+](=O)[O-]
inactive: BT-549 > 100 µM

O=C(c1ccc(Cl)cc1Cl)N(C(=O)N1CCC(c2ccccc2)CC1)c1ccccc1
inactive: BT-549 > 100 µM

COC(=O)C1(Cc2ccccc2)Cc2ccc3c(c2C1=O)CCC3 (stereo not drawn)
inactive: BT-549 2.24 µM

O=S1(=O)NN=C(NCc2ccc(F)cc2)c2ccccc21
inactive: BT-549 67.5 µM | DMS-273 47.1 µM | KM-20L2 > 100 µM | LXFL 529 27.7 µM | SNB-78 55.6 µM | XF498 65 µM

O=C1NC(c2ccccc2)C1N(Cc1ccccc1)Cc1ccccc1 (stereo not drawn)
inactive: BT-549 > 100 µM

O=C(CC(=O)C1=CNc2ccccc2S1)C(=O)Nc1ccc(Cl)cc1
inactive: DMS-114 > 50 µM | DMS-273 > 50 µM | KM-20L2 > 50 µM | LXFL 529 > 50 µM | RXF 631 > 50 µM | SNB-78 > 50 µM | XF498 > 50 µM

COC(=O)CCC12CCC(O1)c1ccccc12 (stereo not drawn)
inactive: BT-549 > 100 µM

CSc1nc(N)c(NC2OC(CO)C(O)C2O)c(=O)[nH]1 (stereo not drawn)
inactive: BT-549 > 100 µM

CC(=O)OC12/C(=N/O)CCCCCC1c1ccccc12 (stereo not drawn)
inactive: DMS-114 41.7 µM | DMS-273 > 100 µM | HOP-18 > 100 µM | KM-20L2 > 100 µM | LXFL 529 66.8 µM | SNB-78 36.3 µM | XF498 62.8 µM

C[C@]12CC(c3ccccc3O1)C(C(N)=O)C(=O)N2 (stereo partly drawn)
inactive: BT-549 > 100 µM

C/C(=N/CC(=O)O)c1ccccc1
inactive: BT-549 61 µM

Cc1cc(=O)n2nc(CN3CCCCC3)sc2n1
inactive: BT-549 > 100 µM

O=C(Nc1nc2ncn(CCOC(=O)c3ccccc3)c2c(=S)[nH]1)c1ccccc1
inactive: DMS-114 64.4 µM | DMS-273 50.9 µM | HOP-18 > 100 µM | KM-20L2 > 100 µM | LXFL 529 49.3 µM | SNB-78 44.1 µM

O=C(CCC(=O)N/N=C/c1ccccc1O)N/N=C/c1ccccc1O
inactive: DMS-114 > 100 µM | DMS-273 > 100 µM | KM-20L2 > 100 µM | LXFL 529 > 100 µM | SNB-78 51.3 µM

CC1CN1c1c(C(=O)/C=C/c2ccc(Cl)cc2)c(-c2ccccc2)nn(C)c1=O (stereo not drawn)
inactive: DMS-114 3.65 µM | DMS-273 2.62 µM | HOP-18 3.92 µM | KM-20L2 3.26 µM | LXFL 529 2.13 µM | SNB-78 2.21 µM | XF498 2.99 µM

NC(=O)c1cc2ccc(O)cc2o/c1=N/NC(=O)c1ccccc1
inactive: BT-549 52.2 µM

NC1=NC2=c3ccccc3=C(c3cnccn3)C2(c2cnccn2)c2ccccc21 (stereo not drawn)
inactive: DMS-114 50.4 µM | DMS-273 > 100 µM | HOP-18 > 100 µM | KM-20L2 > 100 µM | SNB-78 49.1 µM | XF498 36.7 µM

Cc1cc(C(O)CCCc2ccccc2)cc(C)c1O (stereo not drawn)
inactive: DMS-114 26.2 µM | HOP-18 > 100 µM | KM-20L2 > 100 µM | LXFL 529 47.5 µM | RXF 631 51.5 µM | SNB-78 34.9 µM

O=C(COc1ccccc1Cl)N1N=C(c2ccccc2)CC1(O)c1ccccc1 (stereo not drawn)
inactive: DMS-273 16.7 µM | KM-20L2 16.1 µM | LXFL 529 17.1 µM | SNB-78 20.4 µM | XF498 17.6 µM

C=CCCn1nc(-c2ccccc2)oc1=O
inactive: DMS-273 > 100 µM | HOP-18 > 100 µM | KM-20L2 > 100 µM | LXFL 529 > 100 µM | SNB-78 > 100 µM | XF498 > 100 µM

CCOC(=O)C1(Cc2ccc3ccccc3c2)CCCCCN1 (stereo not drawn)
inactive: DMS-114 26.5 µM | DMS-273 18.9 µM | HOP-18 25.5 µM | KM-20L2 22.5 µM | LXFL 529 34.1 µM | SNB-78 64.3 µM | XF498 16.2 µM

CCCc1cc(-c2ccc(-c3cc(CCC)c(C=O)[nH]3)s2)[nH]c1C=O
inactive: BT-549 25.9 µM | DMS-114 8.77 µM | DMS-273 86.1 µM | HOP-18 53 µM | LXFL 529 76.4 µM | SNB-78 > 100 µM | XF498 > 100 µM

Cc1ccc(C)c2c1n1c(=O)n(C)c(=O)n21
inactive: BT-549 > 100 µM

COc1cc(N(C)C)c(OC)cc1/C=C\c1ccnc2ccccc12
inactive: BT-549 4.34 µM

— ChEMBL document CHEMBL1201862, “PubChem BioAssay data set” (2004)
